# Results from PMC9403976, “Elucidating the path to Plasmodium prolyl-tRNA synthetase inhibitors that overcome halofuginone resistance” (Nature Communications, 2022).
# Values joined by “and” are separate entries in the source; they are usually repeats but may differ in a detail not shown here. Identical values can stand only once. Like-named read-outs stand apart in the source and are kept apart here.
# What was measured:
# HT-PfcProRS = HT-PfcProRS (Plasmodium falciparum, UniProt Q8I5R7); assay: biochemical
# Experimental: (§1) A Multidrop Combi Reagent Dispenser (Thermo Fisher Scientific) was used to dispense 20 μL of 2× protein solution into each well. […] Plates were mixed on an Ika MTS 2/4 Digital Microtiter Shaker at 750 rpm for 2 min, centrifuged at 1000 × g at 25 °C for 1 min, and allowed to equilibrate for 2 h at room temperature before TR-FRET measurements were taken.
# (§2) PRISM (V. 8.4.3–9.1.0, GraphPad) was used to perform non-linear regression analysis (log(inhibitor) vs. response–Variable slope (four parameters)), plot dose-response curves, and calculate IC50 values. The Cheng–Prusoff equation was used to convert IC50 to KD values (Eq. (4)):4 KD=IC50/1+[MAT379]/KD,MAT379
# HT-HsProRS [1] = target: T1, HT-HsProRS (Homo sapiens, UniProt P07814); details: replicates 1-4
# T1 sequence (P07814 996-1512): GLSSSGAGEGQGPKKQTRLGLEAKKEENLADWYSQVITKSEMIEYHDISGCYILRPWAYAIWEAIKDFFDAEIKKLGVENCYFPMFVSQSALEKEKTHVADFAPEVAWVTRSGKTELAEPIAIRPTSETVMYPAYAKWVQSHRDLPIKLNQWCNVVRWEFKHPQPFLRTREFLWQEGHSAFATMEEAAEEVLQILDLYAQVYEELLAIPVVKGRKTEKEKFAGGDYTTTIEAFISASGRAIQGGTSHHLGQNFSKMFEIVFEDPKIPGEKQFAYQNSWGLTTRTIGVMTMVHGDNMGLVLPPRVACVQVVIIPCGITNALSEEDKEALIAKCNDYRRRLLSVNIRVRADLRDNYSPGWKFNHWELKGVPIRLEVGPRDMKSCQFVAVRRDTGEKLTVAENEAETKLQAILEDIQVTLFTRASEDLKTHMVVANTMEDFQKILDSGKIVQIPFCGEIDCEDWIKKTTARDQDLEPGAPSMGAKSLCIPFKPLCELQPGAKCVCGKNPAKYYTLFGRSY
# Experimental: as §1, §2
# HT-HsProRS [2] = target: T1, HT-HsProRS; assay: biochemical
# Experimental: as §1, §2
# HsProRS = HsProRS (Homo sapiens, UniProt P07814); details: ref Heacock et al.; cited from earlier work
# [3] = test system: P. falciparum Dd2-2D4 NCP26 selections S1-3; assay: ABS growth assay on bulk populations and clones from NCP26 resistance selections S1-3; assay type: cell-based, Plasmodium falciparum; details: for EC50: Plasmodium falciparum; for Fold-change Resistance: independent experiments
# Experimental: In short, P. falciparum erythrocytic-stage parasites at 1% parasitemia and 1% hematocrit in RPMI + 0.5% Albumax were seeded at 40 μL/well in 384-well plates with test compounds in triplicate, dose-response format with 10 μM dihydroartemisinin as a kill-control and blank (no compound) wells as a growth-control. […] After 72 h, growth was quantified by measuring fluorescence (Molecular Devices SpectraMax iD5) following SYBR Green 1 staining. Data were analyzed in Excel and plotted in PRISM (V. 8.4.3–9.1.0, GraphPad).
# This cycle was repeated for ~50 generations (~100 days), corresponding to 5–6 cycles of drug pressure.
# Clonal parasites were isolated from each selection flask by limiting dilution of ring stage parasites in 96-well plates to an average of 0.8 and 0.2 parasites per well.
# P. falciparum Dd2-2D4 = assay: P. falciparum asexual blood stage (ABS) growth assay, SYBR Green, 72 h, wild-type parasites; assay type: cell-based, Plasmodium falciparum; details: Plasmodium falciparum; cell line Dd2-2D4 (parent); read-out: EC50 [nM] mean
# Chain of HT-PfcProRS (Q8I5R7 249-746): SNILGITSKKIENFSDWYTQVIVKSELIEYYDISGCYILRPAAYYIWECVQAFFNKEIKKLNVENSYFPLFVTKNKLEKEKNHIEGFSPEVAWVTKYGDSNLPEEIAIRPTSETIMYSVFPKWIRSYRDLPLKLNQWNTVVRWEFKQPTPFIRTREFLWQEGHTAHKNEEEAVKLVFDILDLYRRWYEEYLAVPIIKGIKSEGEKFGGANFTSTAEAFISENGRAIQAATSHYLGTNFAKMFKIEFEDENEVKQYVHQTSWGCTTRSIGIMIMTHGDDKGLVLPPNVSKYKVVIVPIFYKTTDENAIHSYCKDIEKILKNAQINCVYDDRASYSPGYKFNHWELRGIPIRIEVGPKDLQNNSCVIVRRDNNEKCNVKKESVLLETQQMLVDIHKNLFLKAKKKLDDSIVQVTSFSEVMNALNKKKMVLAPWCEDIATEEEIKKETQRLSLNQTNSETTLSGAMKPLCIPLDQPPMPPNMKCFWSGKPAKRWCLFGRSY
structure (smiles),measurement,setting,value
Nc1ncnc2c1ncn2[C@@H]1O[C@H](COP(=O)(O)OP(=O)(O)OP(=O)(O)O)[C@@H](O)[C@H]1O [ATP],Kd,HT-PfcProRS,892000 nM
same,ATP - […] HT-HsProRS - 1000nM MAT379,HT-HsProRS [1]; Log[Substrate] (M) -1.301,1.53E-02 and -2.24E-04 and 3.02E-02 and 2.38E-02
same,ATP - […] HT-HsProRS - 1000nM MAT379,HT-HsProRS [1]; Log[Substrate] (M) -1.602,2.53E-02 and 6.72E-02 and 4.62E-03 and 4.29E-02
same,ATP - […] HT-HsProRS - 1000nM MAT379,HT-HsProRS [1]; Log[Substrate] (M) -1.903,3.94E-02 and 5.54E-02 and 1.78E-02 and 4.02E-02
same,ATP - […] HT-HsProRS - 1000nM MAT379,HT-HsProRS [1]; Log[Substrate] (M) -2.204,-1.77E-02 and 2.78E-02 and -2.71E-02
same,ATP - […] HT-HsProRS - 1000nM MAT379,HT-HsProRS [1]; Log[Substrate] (M) -2.505,4.93E-03 and 1.38E-02 and 2.29E-03 and -1.57E-02
same,ATP - […] HT-HsProRS - 1000nM MAT379,HT-HsProRS [1]; Log[Substrate] (M) -2.806,3.39E-02 and 3.33E-02 and 1.97E-02 and 4.46E-02
same,ATP - […] HT-HsProRS - 1000nM MAT379,HT-HsProRS [1]; Log[Substrate] (M) -3.107,5.86E-02 and 6.01E-02 and 5.77E-02 and 4.19E-02
same,ATP - […] HT-HsProRS - 1000nM MAT379,HT-HsProRS [1]; Log[Substrate] (M) -3.408,1.19E-01 and 8.31E-02 and 6.99E-02
same,ATP - […] HT-HsProRS - 1000nM MAT379,HT-HsProRS [1]; Log[Substrate] (M) -3.709,1.24E-01 and 1.53E-01 and 1.47E-01 and 1.40E-01
same,ATP - […] HT-HsProRS - 1000nM MAT379,HT-HsProRS [1]; Log[Substrate] (M) -4.010,2.51E-01 and 2.58E-01 and 2.34E-01 and 2.36E-01
same,ATP - […] HT-HsProRS - 1000nM MAT379,HT-HsProRS [1]; Log[Substrate] (M) -4.311,3.56E-01 and 3.10E-01 and 3.57E-01 and 3.37E-01
same,ATP - […] HT-HsProRS - 1000nM MAT379,HT-HsProRS [1]; Log[Substrate] (M) -4.612,2.50E-01 and 3.45E-01 and 2.88E-01 and 2.85E-01
same,ATP - […] HT-HsProRS - 1000nM MAT379,HT-HsProRS [1]; Log[Substrate] (M) -4.913,3.70E-01 and 3.71E-01 and 3.06E-01 and 3.78E-01
same,ATP - […] HT-HsProRS - 1000nM MAT379,HT-HsProRS [1]; Log[Substrate] (M) -5.214,3.77E-01 and 4.09E-01 and 3.64E-01 and 3.70E-01
same,ATP - […] HT-HsProRS - 1000nM MAT379,HT-HsProRS [1]; Log[Substrate] (M) -5.515,4.23E-01 and 4.03E-01 and 4.00E-01 and 4.38E-01
same,ATP - […] HT-HsProRS - 1000nM MAT379,HT-HsProRS [1]; Log[Substrate] (M) -5.816,4.03E-01 and 4.66E-01 and 3.88E-01 and 4.49E-01
same,ATP - […] HT-HsProRS - 1000nM MAT379,HT-HsProRS [1]; Log[Substrate] (M) -6.118,4.47E-01 and 4.50E-01 and 4.51E-01 and 4.46E-01
same,ATP - […] HT-HsProRS - 1000nM MAT379,HT-HsProRS [1]; Log[Substrate] (M) -6.419,4.22E-01 and 4.52E-01 and 3.59E-01 and 4.01E-01
same,Kd,"HT-HsProRS [2]; HsProRS (KD [nM]) mean, substrates, substrate KD, (-)",67100 nM
same,Kd,"HT-HsProRS [2]; KD of substrate, […] HT-HsProRS, 1000 nM MAT379",30600 nM
same,Km,HsProRS,500 µM
"C[C@@H]1C[C@H](C)C[C@H](C)[C@@H](O)CC(=O)O[C@H]([C@@H]2CCC[C@H]2C(=O)O)C/C=C/C=C(/C#N)[C@H](O)[C@@H](C)C1 [Borrelidin, borrelidin, reference compound]",EC50,"[3]; DD2, cell line S1 - Clone A8, read-out: EC50 [nM] mean",1.5 nM
same,EC50,"[3]; DD2, cell line S1 - bulk population, read-out: EC50 [nM] mean",1.45 nM
same,EC50,"[3]; DD2, cell line S2 - Clone A3, read-out: EC50 [nM] mean",1.6 nM
same,EC50,"[3]; DD2, cell line S2 - Clone B9, read-out: EC50 [nM] mean",4.67 nM
same,EC50,"[3]; DD2, cell line S2 - Clone C5, read-out: EC50 [nM] mean",1.51 nM
same,EC50,"[3]; DD2, cell line S2 - bulk population, read-out: EC50 [nM] mean",1.3 nM
same,EC50,"[3]; DD2, cell line S3 - Clone B3, read-out: EC50 [nM] mean",1.34 nM
same,EC50,"[3]; DD2, cell line S3 - Clone B7, read-out: EC50 [nM] mean",1.38 nM
same,EC50,"[3]; DD2, cell line S3 - bulk population, read-out: EC50 [nM] mean",1.3 nM
same,EC50,"[3]; DD2, read-out: EC50 [nM] mean, cell line S3 - Clone B2",5.92 nM
same,Fold-change Resistance,[3]; S2 - Clone B9,1.46 and 0.77
same,Fold-change Resistance,[3]; S3 - Clone B2,1.02 and 1.96
same,EC50,P. falciparum Dd2-2D4,6.05 nM
